# Values joined by “and” are separate entries in the source; they are usually repeats but may differ in a detail not shown here. Identical values can stand only once. Toxic doses and inconclusive results are not listed. Peptide text beside a SMILES is read from it.
# System: P388 leukemia ip, CD2F1 mice, survival T/C
# Test: NCI In Vivo Anticancer Drug Screen. Data for tumor model P388 Leukemia (intraperitoneal) in CD2F1 (CDF1) mice
# Conditions: endpoint: median survival time, higher = longer survival
# Method in brief: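 Mice carrying the transplanted tumor received test compound or vehicle. Survival was recorded in each group, and the value is the treated-group measurement divided by that of the vehicle-treated control group.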
# [1] = dose: 100.0 mg/kg/injection, schedule: Q04DX002 (ip), vehicle: saline
# [2] = dose: 200.0 mg/kg/injection, schedule: Q04DX002 (ip), vehicle: saline
# [3] = dose: 25.0 mg/kg/injection, schedule: Q01DX009 (ip), vehicle: Klucel (hydroxypropylcellulose) (HPC)
# [4] = dose: 50.0 mg/kg/injection, schedule: Q01DX009 (ip), vehicle: Klucel (hydroxypropylcellulose) (HPC)
# [5] = dose: 100.0 mg/kg/injection, schedule: Q01DX009 (ip), vehicle: Klucel (hydroxypropylcellulose) (HPC)
# [6] = dose: 50.0 mg/kg/injection, schedule: Q01DX005 (ip), vehicle: saline with Tween-80
# [7] = dose: 100.0 mg/kg/injection, schedule: Q01DX005 (ip), vehicle: saline with Tween-80
# [8] = dose: 200.0 mg/kg/injection, schedule: Q01DX005 (ip), vehicle: saline with Tween-80
# [9] = dose: 100.0 mg/kg/injection, schedule: Q01DX001 (ip), vehicle: saline with Tween-80
# [10] = dose: 200.0 mg/kg/injection, schedule: Q01DX001 (ip), vehicle: saline with Tween-80
# [11] = dose: 60.0 mg/kg/injection, schedule: Q01DX005 (ip), vehicle: Klucel (hydroxypropylcellulose) (HPC)
# [12] = dose: 120.0 mg/kg/injection, schedule: Q01DX005 (ip), vehicle: Klucel (hydroxypropylcellulose) (HPC)
# [13] = dose: 240.0 mg/kg/injection, schedule: Q01DX005 (ip), vehicle: Klucel (hydroxypropylcellulose) (HPC)
smiles,measurement,setting,value
CC(=O)C1=CC(C)(C)OC1=O,T/C,"dose: 100.0 mg/kg/injection, schedule: Q04DX002 (ip), vehicle: saline with Tween-80",103 % of control
same,T/C,"dose: 200.0 mg/kg/injection, schedule: Q04DX002 (ip), vehicle: saline with Tween-80",109 % of control
ClCCc1ccn[nH]1,T/C,[1],97 % of control
same,T/C,[2],99 % of control
O=C1c2ccccc2NC1c1ccc2ccccc2n1 (configuration not stated),T/C,[3],94 % of control
same,T/C,[4],93 % of control
same,T/C,[5],86 % of control
CC1(O)CC23CC1CCC2(C)C12CCCC(C)(C(=O)O1)C2CC3O (configuration not stated),T/C,"dose: 12.5 mg/kg/injection, schedule: Q01DX009 (ip), vehicle: Klucel (hydroxypropylcellulose) (HPC)",99 % of control
same,T/C,[3],100 % of control
same,T/C,[4],108 % of control
same,T/C,[5],103 % of control
same,T/C,"dose: 200.0 mg/kg/injection, schedule: Q01DX009 (ip), vehicle: Klucel (hydroxypropylcellulose) (HPC)",100 % of control
NC(Cc1ccccc1)C(=O)NCC(=O)NC(Cc1ccccc1)C(=O)NCC(=O)O (configuration not stated) (H-FGFG-OH; configuration not given here),T/C,"dose: 50.0 mg/kg/injection, schedule: Q01DX005 (ip), vehicle: Klucel (hydroxypropylcellulose) (HPC)",96 % of control
same,T/C,"dose: 100.0 mg/kg/injection, schedule: Q01DX005 (ip), vehicle: Klucel (hydroxypropylcellulose) (HPC)",98 % of control
same,T/C,"dose: 200.0 mg/kg/injection, schedule: Q01DX005 (ip), vehicle: Klucel (hydroxypropylcellulose) (HPC)",102 % of control
CC(=O)N(O)c1ccc2c(c1)Cc1cc(F)ccc1-2,T/C,[6],110 % of control and 121 % of control
same,T/C,[7],120 % of control
same,T/C,[8],123 % of control
same,T/C,"dose: 400.0 mg/kg/injection, schedule: Q01DX005 (ip), vehicle: saline with Tween-80",116 % of control
Cc1ccc(N=S(C)(C)=O)cc1,T/C,[9],103 % of control
same,T/C,[10],104 % of control
same,T/C,"dose: 400.0 mg/kg/injection, schedule: Q01DX001 (ip), vehicle: saline with Tween-80",102 % of control
OCCCN(CCCO)CCN(CCCO)CCCO,T/C,"dose: 100.0 mg/kg/injection, schedule: Q04DX003 (ip), vehicle: saline",97 % of control
same,T/C,"dose: 200.0 mg/kg/injection, schedule: Q04DX003 (ip), vehicle: saline",97 % of control
same,T/C,"dose: 400.0 mg/kg/injection, schedule: Q04DX003 (ip), vehicle: saline",87 % of control
CCC(C)c1cc(/C=C2/OC(=O)c3ccccc32)cc(C(C)CC)c1O (configuration not stated),T/C,[1],100 % of control
same,T/C,[2],99 % of control
same,T/C,"dose: 400.0 mg/kg/injection, schedule: Q04DX002 (ip), vehicle: saline",93 % of control
COc1ccc2nc3cc(Cl)ccc3c(Nc3ccc(S(=O)(=O)Nc4nccs4)cc3)c2c1,T/C,[6],94 % of control
same,T/C,[7],105 % of control
same,T/C,[8],97 % of control
CCOC(=O)c1cc2nc3ccccn3c(=O)c2cc1N,T/C,"dose: 12.5 mg/kg/injection, schedule: Q01DX009 (ip), vehicle: saline with Tween-80",105 % of control and 93 % of control
same,T/C,"dose: 25.0 mg/kg/injection, schedule: Q01DX009 (ip), vehicle: saline with Tween-80",87 % of control and 90 % of control
same,T/C,"dose: 50.0 mg/kg/injection, schedule: Q01DX009 (ip), vehicle: saline with Tween-80",92 % of control
same,T/C,"dose: 100.0 mg/kg/injection, schedule: Q01DX009 (ip), vehicle: saline with Tween-80",86 % of control and 96 % of control
CC1(C)C(N2CCOCC2)C(c2ccccc2)S1(=O)=O (configuration not stated),T/C,"dose: 50.0 mg/kg/injection, schedule: Q01DX001 (ip), vehicle: saline with Tween-80",91 % of control
same,T/C,[9],100 % of control
same,T/C,[10],95 % of control
CC(Nc1nncs1)Nc1nncs1,T/C,"dose: 30.0 mg/kg/injection, schedule: Q01DX005 (ip), vehicle: saline with Tween-80",105 % of control
same,T/C,"dose: 120.0 mg/kg/injection, schedule: Q01DX005 (ip), vehicle: saline with Tween-80",159 % of control and 162 % of control
same,T/C,"dose: 240.0 mg/kg/injection, schedule: Q01DX005 (ip), vehicle: saline with Tween-80",160 % of control and 170 % of control
Cc1cc(NC(=O)COCC(=O)O)no1,T/C,[11],101 % of control
same,T/C,[12],101 % of control
same,T/C,[13],92 % of control
CC(=O)c1c(C)n(C)c2c1nnc1ccccc12,T/C,[11],101 % of control
same,T/C,[12],97 % of control
same,T/C,[13],99 % of control
